Assays:
Veronica persica [1] = experiment: Post-emergence herbicidal effect; format: in vivo; conditions: Dosage 320 g/ha, one-leaf stage, visual scoring after ca. 3 weeks vs untreated controls, 100% = plants have died
Protocol: (§1) The following abbreviations are used in the tables below: [table] 2. Post-Emergence Herbicidal Effect and Crop Plant Compatibility Seeds of monocotyledonous or dicotyledonous weed plants or crop plants are planted in wood-fiber pots in sandy loam, covered with earth and grown in a greenhouse under good growth conditions. 2 to 3 weeks after sowing, the test plants are treated in the one-leaf stage. The compounds according to the invention, formulated in the form of wettable powders (WP) or as emulsion concentrates (EC), are then sprayed onto the green plant parts as aqueous suspension or emulsion at a water application rate of 600 to 800 l/ha (converted) with the addition of 0.2% of wetting agent. The dosage of the compounds according to the invention is given in grams per hectare. After ca. 3 weeks' standing time of the test plants in the greenhouse under optimum growth conditions, the effect of the preparations is scored visually in comparison with untreated controls (herbicidal effect in percent (%): 100% effect=plants have died, 0% effect=as control plants).

Stellaria media [2] = experiment: Post-emergence herbicidal effect; format: in vivo; conditions: Dosage 320 g/ha, one-leaf stage, visual scoring after ca. 3 weeks vs untreated controls, 100% = plants have died
Protocol: as §1

Abutilon theophrasti = experiment: Post-emergence herbicidal effect; format: in vivo; conditions: Dosage 320 g/ha, one-leaf stage, visual scoring after ca. 3 weeks vs untreated controls, 100% = plants have died
Protocol: as §1

Viola tricolor [3] = experiment: Post-emergence herbicidal effect; format: in vivo; conditions: Dosage 320 g/ha, one-leaf stage, visual scoring after ca. 3 weeks vs untreated controls, 100% = plants have died
Protocol: as §1

Echinochloa crus-galli [4] = experiment: Post-emergence herbicidal effect; format: in vivo; conditions: Dosage 320 g/ha, one-leaf stage, visual scoring after ca. 3 weeks vs untreated controls, 100% = plants have died
Protocol: as §1

Matricaria inodora = experiment: Pre-emergence herbicidal effect; format: in vivo; conditions: Dosage 320 g/ha, visual scoring after 3 weeks vs untreated controls, 100% = plants have died
Description: (§2) 1. Pre-Emergence Herbicidal Effect and Crop Plant Compatibility Seeds of monocotyledonous or dicotyledonous weed plants or crop plants are planted in wood-fiber pots in sandy loam and covered with earth. The compounds according to the invention, formulated in the form of wettable powders (WP) or as emulsion concentrates (EC), are then applied as aqueous suspension or emulsion at a water application rate of 600 to 800 l/ha (converted) with the addition of 0.2% of wetting agent to the surface of the covering earth. The dosage of the compounds according to the invention is given in grams per hectare. Following the treatment, the pots are placed in a greenhouse and kept under good growth conditions for the test plants. The visual scoring of the damage on the test plants is carried out after an experiment time of 3 weeks in comparison with untreated controls (herbicidal effect in percent (%): 100% effect=plants have died, 0% effect=as control plants). The following abbreviations are used in the tables below: [table]

Avena fatua = experiment: Pre-emergence herbicidal effect; format: in vivo; conditions: Dosage 320 g/ha, visual scoring after 3 weeks vs untreated controls, 100% = plants have died
Description: as §2

Polygonum convolvulus [5] = experiment: Pre-emergence herbicidal effect; format: in vivo; conditions: Dosage 320 g/ha, visual scoring after 3 weeks vs untreated controls, 100% = plants have died
Description: as §2

Veronica persica [6] = experiment: Pre-emergence herbicidal effect; format: in vivo; conditions: Dosage 320 g/ha, visual scoring after 3 weeks vs untreated controls, 100% = plants have died
Description: as §2

Stellaria media [7] = experiment: Pre-emergence herbicidal effect; format: in vivo; conditions: Dosage 320 g/ha, visual scoring after 3 weeks vs untreated controls, 100% = plants have died
Description: as §2

Setaria viridis [8] = experiment: Pre-emergence herbicidal effect; format: in vivo; conditions: Dosage 320 g/ha, visual scoring after 3 weeks vs untreated controls, 100% = plants have died
Description: as §2

Viola tricolor [9] = experiment: Pre-emergence herbicidal effect; format: in vivo; conditions: Dosage 320 g/ha, visual scoring after 3 weeks vs untreated controls, 100% = plants have died
Description: as §2

Echinochloa crus-galli [10] = experiment: Pre-emergence herbicidal effect; format: in vivo; conditions: Dosage 320 g/ha, visual scoring after 3 weeks vs untreated controls, 100% = plants have died
Description: as §2

Amaranthus retroflexus [11] = experiment: Pre-emergence herbicidal effect; format: in vivo; conditions: Dosage 320 g/ha, visual scoring after 3 weeks vs untreated controls, 100% = plants have died
Description: as §2

Alopecurus myosuroides [12] = experiment: Pre-emergence herbicidal effect; format: in vivo; conditions: Dosage 320 g/ha, visual scoring after 3 weeks vs untreated controls, 100% = plants have died
Description: as §2

[13] = logp (HCOOH), chemicophysical data; conditions: HCOOH
Lolium multiflorum [14] = experiment: Post-emergence herbicidal effect; format: in vivo; conditions: Dosage 320 g/ha, one-leaf stage, visual scoring after ca. 3 weeks vs untreated controls, 100% = plants have died
Protocol: as §1

Setaria viridis [15] = experiment: Post-emergence herbicidal effect; format: in vivo; conditions: Dosage 320 g/ha, one-leaf stage, visual scoring after ca. 3 weeks vs untreated controls, 100% = plants have died
Protocol: as §1

Amaranthus retroflexus [16] = experiment: Post-emergence herbicidal effect; format: in vivo; conditions: Dosage 320 g/ha, one-leaf stage, visual scoring after ca. 3 weeks vs untreated controls, 100% = plants have died
Protocol: as §1

Alopecurus myosuroides [17] = experiment: Post-emergence herbicidal effect; format: in vivo; conditions: Dosage 320 g/ha, one-leaf stage, visual scoring after ca. 3 weeks vs untreated controls, 100% = plants have died
Protocol: as §1

Lolium multiflorum [18] = experiment: Pre-emergence herbicidal effect; format: in vivo; conditions: Dosage 320 g/ha, visual scoring after 3 weeks vs untreated controls, 100% = plants have died
Description: as §2

Polygonum convolvulus [19] = experiment: Post-emergence herbicidal effect; format: in vivo; conditions: Dosage 320 g/ha, one-leaf stage, visual scoring after ca. 3 weeks vs untreated controls, 100% = plants have died
Protocol: as §1

PHBPU = experiment: Post-emergence herbicidal effect; format: in vivo; conditions: Dosage 320 g/ha, one-leaf stage, visual scoring after ca. 3 weeks vs untreated controls, 100% = plants have died
Protocol: as §1, with “2.” for “The following abbreviations are used in the tables below: [table] 2.”

SMILES | Post-emergence herbicidal effect VERPE (Veronica persica [1]) | Post-emergence herbicidal effect STEME (Stellaria media [2]) | Post-emergence herbicidal effect ABUTH (Abutilon theophrasti) | Post-emergence herbicidal effect VIOTR (Viola tricolor [3]) | Post-emergence herbicidal effect ECHCG (Echinochloa crus-galli [4]) | Pre-emergence herbicidal effect MATIN (Matricaria inodora) | Pre-emergence herbicidal effect AVEFA (Avena fatua) | Pre-emergence herbicidal effect POLCO (Polygonum convolvulus [5]) | Pre-emergence herbicidal effect VERPE (Veronica persica [6]) | Pre-emergence herbicidal effect STEME (Stellaria media [7]) | Pre-emergence herbicidal effect SETVI (Setaria viridis [8]) | Pre-emergence herbicidal effect VIOTR (Viola tricolor [9]) | Pre-emergence herbicidal effect ECHCG (Echinochloa crus-galli [10]) | Pre-emergence herbicidal effect AMARE (Amaranthus retroflexus [11]) | Pre-emergence herbicidal effect ALOMY (Alopecurus myosuroides [12]) | logp (HCOOH) [13] | Post-emergence herbicidal effect SETVI (Setaria viridis [15]) | Post-emergence herbicidal effect AMARE (Amaranthus retroflexus [16]) | Pre-emergence herbicidal effect LOLMU (Lolium multiflorum [18]) | Post-emergence herbicidal effect PHBPU (PHBPU) | further results
CCc1nc(N[C@H]2c3cc(C)ccc3C[C@@H]2C)nc(N)c1C#N [Example 1.61] | 90% | 90% | 80% | 80% | 90% | 90% | 90% | 100% | 100% | 100% | 90% | 100% | 100% | 100% | 100% | solid, m.p.: 126.9° C.; logp (HCOOH): 3.07; 1H-NMR (CDCl3, 400 MHZ, δ in ppm): 1.25 |  |  |  |  | 
Nc1nc(N[C@@H]2CCCc3ccccc32)ncc1Cl [Example 1.106] | 80% | 80% |  |  | 90% | 90% |  |  | 100% | 100% | 100% |  | 90% | 100% | 100% |  | 80% | 80% | 100% |  | Post-emergence herbicidal effect LOLMU (Lolium multiflorum [14]): 90%; Post-emergence herbicidal effect ALOMY (Alopecurus myosuroides [17]): 80%
Cc1nc(NC2c3ccccc3CC2C)nc(N)c1C#N (racemic) [Example 1.23] | 90% | 90% | 80% | 90% | 100% |  |  |  |  |  |  |  |  |  |  | solid; logp (HCOOH): 1.99; 1H-NMR (CDCl3, 400 MHZ, δ in ppm): 1.25 (d, 3H, CH3); | 90% | 80% |  | 80% | Post-emergence herbicidal effect POLCO (Polygonum convolvulus [19]): 100%; Post-emergence herbicidal effect LOLMU (Lolium multiflorum [14]): 90%
Cc1ccc2c(c1)[C@H](Nc1nc(N)cc(Cl)n1)[C@@H](C)C2 [Example 1.75] | 85% | 87% |  |  | 85% | 100% | 90% | 100% | 100% | 100% | 95% | 100% | 100% | 100% | 100% |  |  | 90% | 95% | 90% | Post-emergence herbicidal effect POLCO (Polygonum convolvulus [19]): 80%
Cc1ccc2c(c1)[C@H](Nc1nc(C)c(I)c(N)n1)[C@@H](C)C2 [Example 1.46] | 90% | 90% | 100% | 90% |  | 100% | 80% | 100% | 100% | 100% | 100% | 100% |  | 100% | 80% | wax-like; logp (HCOOH): 1.39; 1H-NMR (CDCl3, 400 MHZ, δ in ppm): 1.25 (d, 3H, CH3); | 90% | 100% | 100% |  | 
CCc1nc(N[C@@H]2CCCc3ccccc32)nc(N)c1C#N [Example 1.63] | 80% | 80% |  |  | 80% | 100% | 80% | 100% | 100% | 100% | 100% | 100% | 100% | 90% | 100% | wax-like; logp (HCOOH): 2.49; 1H-NMR (CDCl3, 400 MHZ, δ in ppm): 1.25 (t, 3H, CH3); | 80% |  |  |  | 
Nc1nc(N[C@@H]2CCCc3ccccc32)ncc1Br [Example 1.97] | 80% | 80% |  |  | 80% | 100% |  |  | 100% | 100% | 100% | 100% | 100% | 100% | 80% |  | 80% | 80% | 100% |  | Post-emergence herbicidal effect LOLMU (Lolium multiflorum [14]): 80%
Nc1nc(N[C@@H]2CCCc3ccccc32)ncc1I [Example 1.37] | 90% | 95% | 85% | 80% | 80% | 90% |  |  | 100% | 100% |  |  | 100% | 100% |  | wax-like; logp (HCOOH): 1.32; 1H-NMR (CDCl3, 400 MHZ, δ in ppm): 1.85 (m, 2H, CH2); |  | 100% | 100% | 80% | 
CC[C@H]1Cc2ccccc2[C@@H]1Nc1nc(C)c([N+](=O)[O-])c(N)n1 [Example 1.126] | 85% | 90% |  |  | 80% | 100% |  | 90% | 100% | 100% | 85% | 100% | 95% | 100% |  |  |  |  |  | 80% | 
Cc1nc(NC2CCc3ccc(C(C)C)cc32)nc(N)c1C#N (racemic) [Example 1.28] | 90% |  | 90% | 90% | 90% |  |  |  |  |  |  |  |  |  |  | wax-like; logp (HCOOH): 2.68; 1H-NMR (CDCl3, 400 MHZ, δ in ppm): 1.20 (d, 6H, CH3); |  | 90% |  |  | Post-emergence herbicidal effect POLCO (Polygonum convolvulus [19]): 90%

From patent US8329717B2, “Pyrimidine derivatives and their use for controlling undesired plant growth” (Bayer Cropscience AG, priority 2008, dated 2012)
